Measured values: patent US20120165576A1, “USE OF ERYTHRITOL FOR THE PREVENTION OR TREATMENT OF HYPERTENSION” (priority 2009, published 2012)
Entries after “also recorded” stand apart in the source; their conditions may differ. Read-outs that look alike come from different tables or passages of the source. Marks after values point to notes of the source that are not given here.

Key:
[1] = tested on: sections of thoracic aorta (aortic rings); assay: Aorta reactivity measurements: isolated aortic rings of rats after 21 days of erythritol in drinking water; type: in vivo, Wistar rats; settings: for CAR: relaxation induced by 100 μM carbachol / PE: Contraction induced by 10 μM phenylephrine / SNP: Relaxation induced by 100 μM SNP after stable response to 100 μM carbachol / Tot. relax: Relaxation induced by 100 μM carbachol followed by 100 μM SNP / SNP fraction: Contribution of 100 μM SNP to the total relaxation: 1 g erythritol/kg/day in drinking water, 21 days, mean ± SEM
[2] = tested on: red blood cell suspension; assay: AAPH-induced hemolysis of a red blood cell suspension; type: cell-based; settings: erythritol 0-50 mM, AAPH 50 mM, 37° C., FIG. 3
[3] = tested on: manganese superoxide dismutase (SOD2); assay: SOD2 expression in endothelial cells by qPCR; type: cell-based; settings: human umbilical vein endothelial cells (CRL-1730), erythritol 5 mM, 24 hours
Description: The exposure of endothelial cells to erythritol results in a increase in manganese superoxide dismutase (SOD2) transcription (FIG. 4). Cultured human umbilical vein endothelial cells (CRL-1730, which are available from ATCC) were incubated under standard conditions with erythritol (5 mM, 24 hours). Exposure to erythritol induced or stimulated a 9.4 fold increase in the expression of SOD2 as determined by qPCR (FIG. 4).
After incubation, RNA was isolated from Qiazol suspended cells according to the manufacturer's protocol and quantified using a nanodrop. Reverse transcription reaction was performed using 500 ng of total RNA, which was reverse-transcribed into cDNA using iScript™ cDNA synthesis kit. Next, real time PCR was performed with a BioRad MyiQ iCycler Single Color RT-PCR detection system using Sensimix™ Plus SYBR and Fluorescein, 5 μl diluted (10×) cDNA, and 0.3 μM primers in a total volume of 25 μl. PCR was conducted as follows: denaturation at 95° C. for 3 minutes, followed by 40 cycles of 95° C. for 15 seconds and 60° C. for 45 seconds. After PCR a melt curve (60-95° C.) was produced for product identification and purity. β-actin was included as internal control. Data were analysed using the MyIQ software system (Biorad) and were expressed as relative gene expression (fold change) using the 2^ΔΔCt method.

[4] = cited from earlier work
[5] = cited from earlier work; remark: listed apart in the source
[6] = group DE: STZ diabetic rats, N = 4
[7] = group NE: normoglycemic rats, N = 5
[8] = clinical testing, oral consumption

Structure (SMILES): OCC(O)C(O)CO (stereo not shown) [erythritol, 1,2,3,4-butanetetrol]
- Relaxation response of aortic rings to carbachol (in words) ([1]; diabetic rats consuming erythritol (DE), 1 g/kg/day, compared with normoglycemic rats): essentially the same as the relaxation response of normoglycemic rats; also recorded: identical to that observed in the normoglycemic rats; also recorded: higher and at the same level as found in the aortic rings of the rats of groups N and NE
- CAR: relaxation induced by 100 μM carbachol [1, 6]: 0.61 ± 0.07 g
- PE: Contraction induced by 10 μM phenylephrine [1, 6]: 0.60 ± 0.07 g
- SNP: Relaxation induced by 100 μM SNP after stable response to 100 μM carbachol [1, 6]: 0.14 ± 0.03 g
- Tot. relax: Relaxation induced by 100 μM carbachol followed by 100 μM SNP [1, 6]: 0.75 ± 0.09 g
- SNP fraction: Contribution of 100 μM SNP to the total relaxation ([1]; group DE: STZ diabetic rats, N = 4, p < 0.05 compared to D): 17.8 ± 3.1^b %
- CAR: relaxation induced by 100 μM carbachol [1, 7]: 0.60 ± 0.07 g
- PE: Contraction induced by 10 μM phenylephrine [1, 7]: 0.70 ± 0.06 g
- SNP fraction: Contribution of 100 μM SNP to the total relaxation [1, 7]: 24.7 ± 5.5^ %
- SNP: Relaxation induced by 100 μM SNP after stable response to 100 μM carbachol [1, 7]: 0.21 ± 0.06 g
- Tot. relax: Relaxation induced by 100 μM carbachol followed by 100 μM SNP [1, 7]: 0.81 ± 0.09 g
- Effect on carbachol concentration-response curve (in words) ([1]; normoglycemic rats consuming erythritol (NE), 1 g/kg/day, FIG. 1): did not have a significant effect
- Inhibition of AAPH-induced hemolysis (in words) [2]: inhibited hemolysis in a concentration-dependent manner
- Lagtime (t50, time to reach 50% hemolysis) of AAPH-induced hemolysis (in words) [2]: concentration-dependently shifted the curve to the right; also recorded: concentration-dependent increase
- Increase in the expression of SOD2 as determined by qPCR [3]: 9.4 fold
- Time until excretion with the urine is complete ([4]; after administration): about 3 days
- Systemic metabolism (in words) ([4]; in vivo): not systemically metabolized
- Absorption from the gut (in words) ([4]; oral): rapidly and virtually completely absorbed
- Well tolerated bolus (single) dose [5, 8]: up to 50 grams
- Well tolerated daily dose [5, 8]: up to 80 grams
- Well tolerated bolus (single) dose ([5]; clinical testing, oral consumption, listed as Erythritol): ≤ 50 grams
- Digestive side-effects (in words) ([5]; even after consumption of large quantities): no digestive side-effects
